This experiment addresses T1, CDK2/Cyclin E (Homo sapiens, UniProt P24941).
T1 construct: made in house; host or cells: Sf21 (Spodoptera frugiperda) insect cells, baculovirus co-infection, for CDK2/cyclin E. E. coli BL21 (DE3) pLysS for the GST-Rb substrate
The experiment in a line: in vitro kinase assay, Scintillation Proximity Assay, incorporation of [γ-33-P]-ATP into GST-Rb. In kind it is biochemical. Particulars: in-vitro SPA kinase assay, GST-Rb substrate, read-out: CDK2 inhibitory activity IC50. The method, then:
The compounds were tested in an in vitro kinase assay in 96 well format using Scintillation Proximity Assay (SPA—obtained from Amersham) for measuring incorporation of [γ-33-P]-Adenosine Triphosphate into a test substrate (GST-Retinoblastoma protein; GST-Rb). In each well was placed the compound to be tested (diluted in DMSO and water to correct concentrations) and in control wells either roscovitine as an inhibitor control or DMSO as a positive control. […]
The plates were sealed with Topseal-S plate sealers, left for two hours then spun at 2500 rpm, 1124×g., for 5 minutes. The plates were read on a Topcount for 30 seconds per well. […]
E. coli paste was resuspended in 10 ml/g of NETN buffer (50 mM Tris pH 7.5, 120 mM NaCl, 1 mM EDTA, 0.5% v/v NP-40, 1 mM PMSF, 1 ug/mnl leupeptin, 1 ug/ml aprotinin and 1 ug/ml pepstatin) and sonicated for 2×45 seconds per 100 ml homogenate. […] The final product was analysed by Sodium Dodeca Sulfate (SDS) PAGE (Polyacrylamide gel) using 8-16% Tris-Glycine gels (Novex, San Diego, USA).
The open reading frames of CDK2 and Cyclin E were isolated by reverse transcriptase-PCR using HeLa cell and activated T cell mRNA as a template and cloned into the insect expression vector pVL1393 (obtained from Invitrogen 1995 catalogue number: V1392-20). […]
(In general: SPA uses beads or plates that emit light when radiolabelled molecules are held near them.)

Regarding `CC(C)NCCCNS(=O)(=O)c1ccc(Nc2ncc(C#N)c(N3CCOCC3)n2)cc1` [Example 1, 5-Cyano-4-morpholino-2-{4-[N-(3-isopropylaminopropyl)sulphamoyl]anilino}pyrimidine], the IC50 stood at 0.148 µM.

A word on the IC50: it is the concentration that gives 50% inhibition.

Values taken from US6908920B2, “Pyrimidine derivatives” (AstraZeneca AB, priority 2000, dated 2005).
